{"source": "patent US20020004042A1", "about": "“Gene therapy for pulmonary edema using adenovirus vectors encoding a beta2adrenergic receptor gene” (priority 2000, published 2002)", "key": {"β2AR": {"target": "T1, β2AR (Rattus norvegicus, UniProt P10608)", "T1 construct": "from tissue; host or cells: apical membranes of rat peripheral lung", "T1 sequence (P10608 whole entry)": "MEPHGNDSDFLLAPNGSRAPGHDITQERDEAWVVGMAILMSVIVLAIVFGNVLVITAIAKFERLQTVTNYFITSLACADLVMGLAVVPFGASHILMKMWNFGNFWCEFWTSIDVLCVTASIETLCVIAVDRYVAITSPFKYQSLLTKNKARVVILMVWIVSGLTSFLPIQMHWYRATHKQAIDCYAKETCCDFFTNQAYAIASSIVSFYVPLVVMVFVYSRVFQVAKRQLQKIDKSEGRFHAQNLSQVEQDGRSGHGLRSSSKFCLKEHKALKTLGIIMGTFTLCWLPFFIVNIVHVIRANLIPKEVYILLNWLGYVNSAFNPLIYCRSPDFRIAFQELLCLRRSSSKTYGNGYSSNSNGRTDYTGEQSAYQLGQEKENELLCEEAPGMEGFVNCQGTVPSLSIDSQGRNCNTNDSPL", "assay": "Western analysis of β2AR in apical membranes of peripheral lung of procaterol-treated rats", "type": "in vivo", "details": "procaterol 100 μg every 8 hours by gavage", "procedure": "To test if agonist-induced loss of receptor function and/or expression occurs in the alveolar epithelium normal rats were treated with the β2AR specific agonist procaterol (100 μg every 8 hours by gavage). Lung liquid clearance was then measured using a fluid-filled isolated lung preparation in the presence of procaterol (10^−6 M instilled into the alveolar airspace and perfused through the pulmonary artery) beginning 4 hours after the first dose. […] Thus, the loss of catecholamine responsive lung liquid clearance in these rats is likely due, in part, to receptor downregulation."}, "rat lungs": {"system": "rat lungs", "assay": "Lung liquid clearance, fluid-filled isolated perfused rat lung preparation", "type": "in vivo, Sprague-Dawley rats", "details": "procaterol 100 μg every 8 hours by gavage", "procedure": "To test if β2AR gene transfer could increase transgene expression and if overexpression could affect the transepithelial osmotic gradient necessary to achieve pulmonary edema clearance, normal Sprague-Dawley rats were infected with the vectors disclosed in Example 1. 250-300 gm male Sprague-Dawley rats were lightly sedated with pentobarbital prior to orotracheal intubation with a 14 g angiocatheter. Adenovirus (4×10^9 pfu) was suspended in […] of a 50% surfactant/50% dialysis buffer mixture (Surfanta, Abbott Laboratories, Columbus, Ohio). […]\nSeven days after infection, whole lung transgene expression was measured via Western analysis using a rabbit anti-human β2AR antibody and chemiluminescent detection method. […] To test for in vivo transgene function lung liquid clearance was measured using a well-established isolated lung preparation. […]\nTo test if agonist-induced loss of receptor function and/or expression occurs in the alveolar epithelium normal rats were treated with the β2AR specific agonist procaterol (100 μg every 8 hours by gavage). Lung liquid clearance was then measured using a fluid-filled isolated lung preparation in the presence of procaterol (10^−6 M instilled into the alveolar airspace and perfused through the pulmonary artery) beginning 4 hours after the first dose. […]"}, "Na,K-ATPase": {"system": "Na,K-ATPase", "assay": "Western analysis of Na,K-ATPase α1 and β1 in basolateral membrane of A549 cells", "type": "cell-based, human", "details": "ICI 118,551 10^-6 M 10 minutes prior to procaterol", "procedure": "To test if β2AR overexpression can affect active Na^+ transport in vitro, A549 cells were treated as described above prior to measurement of ouabain-sensitive Na^+ transport (an index of Na,K-ATPase activity). […] Additional studies done to establish the mechanisms responsible for this finding included quantification of Na,K-ATPase α1 and β1 expression in the basolateral membrane of A549 cells."}}}
{"molecule": "CCC(NC(C)C)C(O)c1ccc(O)c2[nH]c(=O)ccc12", "note": "(stereo not shown) [procaterol]", "values": [{"measurement": "β2AR expression in apical membranes of peripheral lung", "setting": "β2AR", "value": "marked reductions"}, {"measurement": "lung liquid clearance in presence of procaterol after procaterol pretreatment, 4 hours", "setting": "rat lungs; 4 hours after first dose, 10^-6 M during measurement", "value": "not different from untreated controls"}, {"measurement": "lung liquid clearance in presence of procaterol after procaterol pretreatment, 24 hours", "setting": "rat lungs; 24 hours", "value": "remained less than naive rats"}]}
{"molecule": "Cc1ccc(OCC(O)C(C)NC(C)C)c2c1CCC2", "note": "(stereo not shown) [ICI 118,551]", "values": [{"measurement": "effect of antagonist pre-treatment on recruitment of Na,K-ATPase to the cell membrane", "setting": "Na,K-ATPase", "value": "blocked"}]}
